# Activity calls are given as the source filed them.
# How the values were obtained:
# [1] = molecular target: DNA dC->dU-editing enzyme APOBEC-3A (Homo sapiens, UniProt P31941); experiment: Dose Response confirmation of small molecule APOBEC3A DNA Deaminase Inhibitors via a fluorescence-based single-stranded DNA deaminase assay. [Related pubchem assays (depositor defined):AID493011, AID493024]; format: functional
# [2] = molecular target: DNA dC->dU-editing enzyme APOBEC-3G (Homo sapiens, UniProt Q9HC16); format: functional;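 also: Dose-response counterscreen measuring inhibition of APOBEC3G DNA deaminase activity, run while confirming APOBEC3A inhibitors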
# Chain of DNA dC->dU-editing enzyme APOBEC-3G (Q9HC16 whole entry): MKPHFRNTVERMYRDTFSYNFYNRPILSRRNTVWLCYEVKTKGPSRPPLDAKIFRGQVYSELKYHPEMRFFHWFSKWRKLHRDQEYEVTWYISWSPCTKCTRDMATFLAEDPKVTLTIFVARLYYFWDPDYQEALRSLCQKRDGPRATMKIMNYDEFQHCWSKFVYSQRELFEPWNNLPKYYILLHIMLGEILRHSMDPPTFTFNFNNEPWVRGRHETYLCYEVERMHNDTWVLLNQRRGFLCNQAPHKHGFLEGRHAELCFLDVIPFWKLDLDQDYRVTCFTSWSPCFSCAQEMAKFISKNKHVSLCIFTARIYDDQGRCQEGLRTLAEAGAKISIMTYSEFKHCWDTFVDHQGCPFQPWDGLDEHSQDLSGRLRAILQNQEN
# [3] = molecular target: T1, High affinity choline transporter 1 (Homo sapiens, UniProt Q9GZV3); experiment: human choline transporter blockers, potency – cell-based, 5-point CRC, membrane potential dye, dose response (AID 504840); format: functional
# T1 sequence (Q9GZV3 whole entry): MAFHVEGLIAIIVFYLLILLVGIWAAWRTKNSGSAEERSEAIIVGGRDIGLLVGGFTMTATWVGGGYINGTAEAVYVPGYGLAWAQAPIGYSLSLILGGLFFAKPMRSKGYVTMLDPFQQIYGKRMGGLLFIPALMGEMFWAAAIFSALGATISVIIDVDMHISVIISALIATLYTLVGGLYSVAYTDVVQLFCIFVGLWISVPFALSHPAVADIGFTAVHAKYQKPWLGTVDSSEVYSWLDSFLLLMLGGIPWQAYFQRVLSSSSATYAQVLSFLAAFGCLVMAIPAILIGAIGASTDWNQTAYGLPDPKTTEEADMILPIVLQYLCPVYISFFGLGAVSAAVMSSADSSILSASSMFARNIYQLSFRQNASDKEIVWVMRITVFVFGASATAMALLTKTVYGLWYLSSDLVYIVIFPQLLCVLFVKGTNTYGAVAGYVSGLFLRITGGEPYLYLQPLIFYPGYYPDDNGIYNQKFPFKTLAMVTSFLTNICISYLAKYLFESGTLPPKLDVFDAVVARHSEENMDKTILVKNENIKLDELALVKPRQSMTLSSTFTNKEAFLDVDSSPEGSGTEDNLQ
# [4] = molecular target: T2, Short transient receptor potential channel 4 (Mus musculus, UniProt Q9QUQ5); experiment: calcium entry via TRPC4 opening agents – cell-based, HEK293 TRPC4/mu-opioid, Fluo-4 calcium, dose response (AID 434937); format: functional
# T2 sequence (Q9QUQ5 whole entry): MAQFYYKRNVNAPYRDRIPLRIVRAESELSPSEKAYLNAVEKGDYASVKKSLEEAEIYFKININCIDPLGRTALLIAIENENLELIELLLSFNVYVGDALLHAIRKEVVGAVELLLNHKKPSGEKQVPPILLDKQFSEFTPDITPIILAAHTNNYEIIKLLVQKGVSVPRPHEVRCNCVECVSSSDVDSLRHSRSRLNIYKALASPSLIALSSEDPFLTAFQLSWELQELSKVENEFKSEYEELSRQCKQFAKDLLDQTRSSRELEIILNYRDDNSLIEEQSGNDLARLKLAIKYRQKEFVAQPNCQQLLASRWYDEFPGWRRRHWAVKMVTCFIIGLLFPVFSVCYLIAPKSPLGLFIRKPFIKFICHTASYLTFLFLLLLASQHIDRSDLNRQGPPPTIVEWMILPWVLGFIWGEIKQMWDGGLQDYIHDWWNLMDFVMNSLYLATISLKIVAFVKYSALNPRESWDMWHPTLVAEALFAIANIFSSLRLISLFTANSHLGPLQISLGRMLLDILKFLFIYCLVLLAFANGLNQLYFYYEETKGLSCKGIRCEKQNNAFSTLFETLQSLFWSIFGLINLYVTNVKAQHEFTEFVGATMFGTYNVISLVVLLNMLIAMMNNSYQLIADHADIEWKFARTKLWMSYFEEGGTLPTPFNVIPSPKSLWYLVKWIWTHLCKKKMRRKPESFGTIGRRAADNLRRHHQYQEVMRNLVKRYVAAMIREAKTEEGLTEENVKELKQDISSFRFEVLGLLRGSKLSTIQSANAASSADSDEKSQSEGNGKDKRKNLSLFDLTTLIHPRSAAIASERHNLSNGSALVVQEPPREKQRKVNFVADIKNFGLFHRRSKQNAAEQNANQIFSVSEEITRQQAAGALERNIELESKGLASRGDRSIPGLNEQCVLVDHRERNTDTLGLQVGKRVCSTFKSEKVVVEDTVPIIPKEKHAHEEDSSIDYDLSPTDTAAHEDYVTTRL
# [5] = molecular target: FAD-linked sulfhydryl oxidase ALR (Homo sapiens, UniProt P55789); experiment: ALR-catalysed DTT oxidation blockers – biochemical, H2O2 detection, luminescence, cherry-pick, dose response (AID 493248)
# Chain of FAD-linked sulfhydryl oxidase ALR (P55789 whole entry): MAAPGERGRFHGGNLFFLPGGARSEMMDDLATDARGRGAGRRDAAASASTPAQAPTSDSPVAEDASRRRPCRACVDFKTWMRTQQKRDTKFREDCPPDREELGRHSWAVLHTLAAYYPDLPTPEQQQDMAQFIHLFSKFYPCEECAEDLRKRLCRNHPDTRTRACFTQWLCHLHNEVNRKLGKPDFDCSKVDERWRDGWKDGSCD
# [6] = molecular target: 26S proteasome non-ATPase regulatory subunit 14 (Homo sapiens, UniProt O00487); experiment: inhibition of proteasome subunit RPN11 – biochemical, fluorescence polarization, uHTS hits, confirmation (AID 602368); format: functional
# Chain of 26S proteasome non-ATPase regulatory subunit 14 (O00487 whole entry): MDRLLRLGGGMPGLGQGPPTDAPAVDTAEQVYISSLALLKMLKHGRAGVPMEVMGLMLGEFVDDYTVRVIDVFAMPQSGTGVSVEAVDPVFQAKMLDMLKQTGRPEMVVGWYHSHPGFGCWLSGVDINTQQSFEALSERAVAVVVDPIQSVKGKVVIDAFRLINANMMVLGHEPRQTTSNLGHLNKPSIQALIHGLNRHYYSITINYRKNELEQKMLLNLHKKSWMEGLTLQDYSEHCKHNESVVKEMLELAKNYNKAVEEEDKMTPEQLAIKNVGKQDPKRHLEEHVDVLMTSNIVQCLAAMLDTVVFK
# [7] = molecular target: 72 kDa type IV collagenase (Homo sapiens, UniProt P08253); experiment: Dose Response validation of uHTS RPN11 inhibitor hits using a MMP-2 Fluorescence assay.; format: functional
# Chain of 72 kDa type IV collagenase (P08253 whole entry): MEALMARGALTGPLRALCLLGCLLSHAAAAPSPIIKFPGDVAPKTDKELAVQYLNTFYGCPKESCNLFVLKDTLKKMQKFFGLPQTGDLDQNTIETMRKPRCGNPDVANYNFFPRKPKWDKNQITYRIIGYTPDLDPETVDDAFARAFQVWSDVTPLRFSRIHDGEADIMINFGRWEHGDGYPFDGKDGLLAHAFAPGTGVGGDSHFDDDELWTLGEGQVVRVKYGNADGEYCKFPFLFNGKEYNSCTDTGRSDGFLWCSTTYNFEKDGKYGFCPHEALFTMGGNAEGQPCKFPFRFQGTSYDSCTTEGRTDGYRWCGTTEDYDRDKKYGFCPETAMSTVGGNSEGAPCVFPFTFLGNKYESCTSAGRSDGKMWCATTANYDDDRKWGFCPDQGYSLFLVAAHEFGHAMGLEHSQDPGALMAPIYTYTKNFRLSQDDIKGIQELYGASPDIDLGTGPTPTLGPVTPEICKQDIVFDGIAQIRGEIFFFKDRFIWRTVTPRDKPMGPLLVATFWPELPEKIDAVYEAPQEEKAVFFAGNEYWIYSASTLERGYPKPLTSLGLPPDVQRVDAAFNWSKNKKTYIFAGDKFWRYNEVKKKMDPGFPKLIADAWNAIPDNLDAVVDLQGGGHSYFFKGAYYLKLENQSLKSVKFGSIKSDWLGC
# Prothrombin = Prothrombin (Bos taurus, UniProt P00735); experiment: thrombin protease inhibitors – biochemical, fluorescence polarization, uHTS hits, dose response (AID 602369); format: functional
# [8] = molecular target: Dual specificity tyrosine-phosphorylation-regulated kinase 1A (Rattus norvegicus, UniProt Q63470); format: biochemical, Homo sapiens
# HEK293 [9] = experiment: inhibition of NOD1-driven NF-kB reporter – cell-based, luminescence, uHTS, primary screen (AID 1578); format: functional; details: Homo sapiens
# HEK293 [10] = experiment: cells; format: functional, cell-based; details: Homo sapiens
# HEK293 [11] = experiment: cells; format: functional, cell-based; details: Homo sapiens; remark: listed apart in the source
# HEK293 [12] = experiment: NOD2 signaling inhibitors in MDP-stimulated cells, cell-based, uHTS, luminescence (AID 2001); format: functional; details: Homo sapiens
# Tumor necrosis factor = Tumor necrosis factor (Homo sapiens, UniProt P01375); experiment: analog potency on TNFa NF-kB signaling – cell-based, revised, SAR follow-up (AID 2337); format: functional
# Chain of Tumor necrosis factor (P01375 whole entry, the tested form may be a part): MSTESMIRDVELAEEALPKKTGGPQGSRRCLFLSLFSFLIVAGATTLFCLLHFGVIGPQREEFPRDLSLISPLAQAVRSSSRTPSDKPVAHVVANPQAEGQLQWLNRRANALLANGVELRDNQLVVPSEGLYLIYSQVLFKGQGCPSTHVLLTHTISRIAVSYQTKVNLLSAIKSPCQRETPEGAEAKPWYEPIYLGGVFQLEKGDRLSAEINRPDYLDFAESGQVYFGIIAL
# [13] = molecular target: T3, Nucleotide-binding oligomerization domain-containing protein 1 (Homo sapiens, UniProt Q9Y239); experiment: blockers of NOD1 pathway activity – revised, SAR follow-up (AID 2333); format: functional
# T3 sequence (Q9Y239 whole entry): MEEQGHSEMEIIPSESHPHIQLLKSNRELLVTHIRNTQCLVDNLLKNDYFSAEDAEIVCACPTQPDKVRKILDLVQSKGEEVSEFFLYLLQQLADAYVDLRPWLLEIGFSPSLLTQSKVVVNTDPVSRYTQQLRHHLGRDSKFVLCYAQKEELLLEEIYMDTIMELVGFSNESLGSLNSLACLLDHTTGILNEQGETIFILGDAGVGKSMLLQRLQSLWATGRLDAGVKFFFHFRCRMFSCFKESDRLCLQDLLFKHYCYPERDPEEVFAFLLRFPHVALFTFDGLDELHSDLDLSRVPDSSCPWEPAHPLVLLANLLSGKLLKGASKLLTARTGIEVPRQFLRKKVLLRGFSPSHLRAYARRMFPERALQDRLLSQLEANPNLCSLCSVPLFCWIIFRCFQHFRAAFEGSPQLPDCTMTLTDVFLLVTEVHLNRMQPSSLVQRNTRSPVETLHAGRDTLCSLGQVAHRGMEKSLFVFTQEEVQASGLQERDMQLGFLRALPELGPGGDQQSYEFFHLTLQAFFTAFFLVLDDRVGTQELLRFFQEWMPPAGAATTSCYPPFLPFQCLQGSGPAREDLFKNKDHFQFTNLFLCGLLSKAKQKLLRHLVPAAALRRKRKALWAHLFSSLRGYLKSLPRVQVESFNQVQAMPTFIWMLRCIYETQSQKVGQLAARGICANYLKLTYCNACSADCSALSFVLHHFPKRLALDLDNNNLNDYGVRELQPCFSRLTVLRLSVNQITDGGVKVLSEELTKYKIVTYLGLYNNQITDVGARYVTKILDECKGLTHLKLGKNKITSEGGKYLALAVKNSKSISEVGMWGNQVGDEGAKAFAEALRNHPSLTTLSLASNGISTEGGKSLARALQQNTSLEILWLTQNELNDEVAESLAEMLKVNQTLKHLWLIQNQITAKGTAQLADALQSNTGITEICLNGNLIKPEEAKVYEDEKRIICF
# HEK293 [14] = experiment: cells; details: Homo sapiens
# SUMO-activating enzyme = SUMO-activating enzyme (Homo sapiens, UniProt Q9UBT2); experiment: blockers of UBC9-mediated SUMO conjugation – biochemical, AlphaScreen, SUMOylation inhibitor project, confirmation (AID 2018); format: functional
# Chain of SUMO-activating enzyme (Q9UBE0 whole entry): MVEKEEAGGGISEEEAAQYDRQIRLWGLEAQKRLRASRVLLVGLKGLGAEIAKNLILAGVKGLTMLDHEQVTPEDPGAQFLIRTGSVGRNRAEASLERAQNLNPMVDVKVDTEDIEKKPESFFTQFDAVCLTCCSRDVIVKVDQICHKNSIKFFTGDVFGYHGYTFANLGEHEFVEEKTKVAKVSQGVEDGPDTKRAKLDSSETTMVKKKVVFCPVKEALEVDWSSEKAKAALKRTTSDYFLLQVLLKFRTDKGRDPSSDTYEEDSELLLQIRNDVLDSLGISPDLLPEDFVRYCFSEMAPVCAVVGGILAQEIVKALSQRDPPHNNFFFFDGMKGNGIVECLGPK
# Chain of SUMO-activating enzyme (Q9UBT2 whole entry): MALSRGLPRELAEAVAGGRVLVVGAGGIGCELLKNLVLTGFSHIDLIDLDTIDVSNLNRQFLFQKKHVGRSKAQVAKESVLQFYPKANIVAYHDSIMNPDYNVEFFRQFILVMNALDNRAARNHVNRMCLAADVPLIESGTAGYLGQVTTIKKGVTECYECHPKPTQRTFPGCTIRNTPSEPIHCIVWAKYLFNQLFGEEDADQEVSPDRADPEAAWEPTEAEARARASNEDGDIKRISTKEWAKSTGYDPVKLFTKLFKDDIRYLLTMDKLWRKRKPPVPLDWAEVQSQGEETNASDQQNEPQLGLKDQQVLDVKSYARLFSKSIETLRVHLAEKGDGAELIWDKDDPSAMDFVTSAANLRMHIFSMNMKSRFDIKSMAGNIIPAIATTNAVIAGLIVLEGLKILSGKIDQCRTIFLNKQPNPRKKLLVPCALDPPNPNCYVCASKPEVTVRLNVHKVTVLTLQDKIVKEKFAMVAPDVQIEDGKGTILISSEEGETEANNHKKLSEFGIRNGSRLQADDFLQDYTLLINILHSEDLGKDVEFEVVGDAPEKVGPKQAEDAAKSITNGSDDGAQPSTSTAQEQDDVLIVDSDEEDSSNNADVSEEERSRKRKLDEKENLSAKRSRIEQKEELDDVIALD
# [15] = reduction of Shn3 3'UTR-driven luciferase in osteoblasts – cell-based, Clone20 osteoblasts, firefly luciferase, cherry-picked, dose response (AID 624132); format: functional;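 also: firefly luciferase luminescence from reporter carrying the Shn3 3'UTR in osteoblasts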
# [16] = loss of viability in HepG2 cells – cell-based, CellTiter-Glo, cherry-picked, cytotoxicity control for Shn3 inhibitor project, dose response (AID 624134); format: functional
# [17] = non-specific 3'UTR reporter inhibition in Clone20-Shn3RL – cell-based, Renilla luciferase, cherry-picked, counter-screen for Shn3 inhibitor project, dose response (AID 624133); format: functional
# Melanocortin receptor 4 = Melanocortin receptor 4 (Homo sapiens, UniProt P32245); format: functional, cell-based;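 also: Cell-based assay with luminescence read-out, confirmatory dose-response testing for agonist activity of biased ligands at MC4R; human U2OS cells with tagged receptor and beta-arrestin; potency of agonists that increase receptor coupling to beta-arrestin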
# Chain of Melanocortin receptor 4 (P32245 whole entry): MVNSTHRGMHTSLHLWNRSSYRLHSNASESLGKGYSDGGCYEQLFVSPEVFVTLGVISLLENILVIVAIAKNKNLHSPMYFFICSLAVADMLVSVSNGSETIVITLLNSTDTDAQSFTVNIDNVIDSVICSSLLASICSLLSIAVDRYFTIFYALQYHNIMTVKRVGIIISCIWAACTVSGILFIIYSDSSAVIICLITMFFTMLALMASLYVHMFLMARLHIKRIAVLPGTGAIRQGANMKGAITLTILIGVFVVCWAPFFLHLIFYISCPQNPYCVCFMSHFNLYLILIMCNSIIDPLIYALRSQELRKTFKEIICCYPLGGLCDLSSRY
# Cytochrome P450 3A4 = Cytochrome P450 3A4 (Homo sapiens, UniProt P08684); details: Potency;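 also: confirmatory qHTS run detecting inhibitors and substrates of CYP3A4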
# Chain of Cytochrome P450 3A4 (P08684 whole entry): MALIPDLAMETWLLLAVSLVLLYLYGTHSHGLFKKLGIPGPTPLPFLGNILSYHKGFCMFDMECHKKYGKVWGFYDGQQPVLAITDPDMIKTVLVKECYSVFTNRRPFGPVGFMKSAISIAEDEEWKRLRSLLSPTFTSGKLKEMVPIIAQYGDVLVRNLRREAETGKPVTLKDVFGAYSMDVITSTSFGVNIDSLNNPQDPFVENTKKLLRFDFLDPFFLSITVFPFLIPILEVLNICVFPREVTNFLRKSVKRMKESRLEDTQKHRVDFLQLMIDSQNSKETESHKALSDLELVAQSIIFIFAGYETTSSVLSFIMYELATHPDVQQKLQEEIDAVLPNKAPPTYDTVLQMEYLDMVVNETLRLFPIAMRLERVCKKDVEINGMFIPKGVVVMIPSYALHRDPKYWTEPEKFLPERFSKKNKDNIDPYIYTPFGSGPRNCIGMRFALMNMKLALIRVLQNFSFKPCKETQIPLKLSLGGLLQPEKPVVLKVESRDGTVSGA
# [18] = molecular target: Eukaryotic translation initiation factor 4E (Mus musculus, UniProt P63073); experiment: blockers of eIF4G binding by eIF4E – biochemical, TR-FRET, dose response (AID 855); format: functional;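 also: potency for disrupting eIF4E binding to eIF4GI seen as loss of FRET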
# Chain of Eukaryotic translation initiation factor 4E (P63073 whole entry): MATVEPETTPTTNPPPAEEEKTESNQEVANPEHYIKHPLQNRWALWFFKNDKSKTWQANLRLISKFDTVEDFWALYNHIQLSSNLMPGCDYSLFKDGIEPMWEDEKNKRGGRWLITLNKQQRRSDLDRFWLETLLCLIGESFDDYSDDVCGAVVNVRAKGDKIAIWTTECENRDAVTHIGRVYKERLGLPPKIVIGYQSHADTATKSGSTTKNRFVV
# Chain of DNA dC->dU-editing enzyme APOBEC-3A (P31941 whole entry): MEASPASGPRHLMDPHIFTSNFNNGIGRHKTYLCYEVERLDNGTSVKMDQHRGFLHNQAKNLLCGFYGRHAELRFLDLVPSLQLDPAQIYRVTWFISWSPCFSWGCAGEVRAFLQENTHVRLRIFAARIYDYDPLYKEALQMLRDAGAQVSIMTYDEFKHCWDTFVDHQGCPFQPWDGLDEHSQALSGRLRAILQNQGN
smiles,measurement,setting,value
CCc1n(CC(O)COCC2CC=CCC2)c2ccccc2[n+]1C (configuration not stated),IC50,[1],1.93 µM (active)
same,IC50,[2],3.7 µM (active)
CCn1cc(CNC(=O)c2cc(COc3ccc(F)cc3F)on2)cn1,IC50,[3],18.2 µM (active)
Cc1c(NC(=O)c2nc[nH]n2)cccc1-c1nc2ccccc2s1,IC50,[1],1.58 µM (active)
same,IC50,[2],2.54 µM (active)
COc1ccc(C(CNCC(=O)Nc2ccccc2F)N(C)C)cc1 (configuration not stated),EC50,[4],0.133 µM (active)
Cc1ccc(-n2cccc2/C=C2/C(=N)N3C(=NC2=O)SN=C3S(C)(=O)=O)cc1,AC50,[5],0.598 µM (active)
same,IC50,[6],26.2 µM (active)
same,IC50,[7],> 100 µM (inactive)
same,IC50,Prothrombin,86.9 µM (active)
COc1ccc2cc(-c3cccnc3)ncc2c1,AC50,[8],6.39 µM (active)
C(=C\c1ccco1)/C1=NN(c2ccccc2)C(c2ccco2)C1 (configuration not stated),IC50,[6],22.8 µM (active)
same,IC50,[7],> 100 µM (inactive)
same,IC50,Prothrombin,14.8 µM (active)
CN(Cc1ccc(F)cc1)S(=O)(=O)c1nnc(NC(=O)c2ccccc2)s1,EC50,HEK293 [9],3.08 µM (active)
same,IC50,HEK293 [10],> 20 µM (inactive)
same,IC50,HEK293 [11],> 20 µM (inactive)
same,IC50,HEK293 [12],16.7 µM (inactive)
same,IC50,Tumor necrosis factor,15.1 µM (active)
same,IC50,[13],11.1 µM (active)
same,IC50,HEK293 [14],> 20 µM (inactive)
Cc1cc(C)cc(-n2cccc2/C=C2/C(=N)N3C(=NC2=O)SN=C3S(C)(=O)=O)c1,IC50,[6],37.6 µM (active)
same,IC50,[7],81.6 µM (active)
same,IC50,Prothrombin,74.6 µM (active)
CCCCNC(=O)c1ccc2c(OCC)n(CCCC)nc2c1,IC50,[3],13.1 µM (active)
CN1CCN(c2ccc(C(F)(F)F)cc2NC(=O)Nc2ccccc2)CC1,EC50,[4],4.73 µM (active)
CCN1C(N(C)CCc2cccs2)=N[C@@H](c2ccccc2)C(C(=O)OC)=C1C,IC50,[1],6.31 µM (active)
same,IC50,[2],8.2 µM (active)
Cc1nc(CN(C)C(=O)c2cc(COc3ccc4ncccc4c3)on2)cs1,EC50,HEK293 [9],2.75 µM (active)
same,IC50,HEK293 [10],7.67 µM (active)
same,IC50,HEK293 [11],> 20 µM (inactive)
same,IC50,HEK293 [12],14.3 µM (inactive)
same,IC50,Tumor necrosis factor,> 20 µM (inactive)
same,IC50,[13],> 20 µM (inactive)
same,IC50,HEK293 [14],> 20 µM (inactive)
CN1CCN(CC(=O)Nc2sc3c(c2C(=O)Nc2ccccc2)CCCC3)CC1,IC50,[1],6.88 µM (active)
same,IC50,[2],5.56 µM (active)
COc1ccccc1NC(=O)c1sc2ncn(CC(=O)Nc3ccccc3)c(=O)c2c1C,IC50,SUMO-activating enzyme,20.4 µM (active)
Cc1ccc2cc3c(NS(=O)(=O)c4cccc5nonc45)nn(CC(C)C)c3nc2c1,IC50,[3],13.8 µM (active)
Fc1ccc(-c2nnc(CN3CCN(c4ncc(C(F)(F)F)cc4Cl)CC3)o2)cc1,EC50,[4],5.31 µM (active)
Fc1ccc(C2CCNCC2COc2ccc3c(c2)OCO3)cc1 (configuration not stated),EC50,[4],10.6 µM (active)
COc1ccc(CNc2ncnc3sccc23)cc1OC,EC50,HEK293 [9],5.37 µM (active)
same,IC50,HEK293 [10],17.4 µM (active)
same,IC50,HEK293 [11],> 20 µM (inactive)
same,IC50,HEK293 [12],> 20 µM (inactive)
same,IC50,Tumor necrosis factor,13 µM (active)
same,IC50,[13],9.64 µM (active)
same,AC50,[15],2.34 µM (active)
same,AC50,[16],68.3 µM (active)
same,AC50,[17],5.11 µM (active)
same,IC50,HEK293 [14],> 20 µM (inactive)
COc1ccccc1NC(=O)Nc1nc(C(N)Cc2ccc(Cl)cc2)cs1 (configuration not stated),EC50,Melanocortin receptor 4,> 89.2 µM (inactive)
CC1(C)Oc2ccc3ccc(=O)oc3c2C(/C=N/c2ccc(O)cc2)=C1O,EC50,Melanocortin receptor 4,> 89.2 µM (inactive)
CCC(=O)[C@]12O[C@@]3(C4C(=O)OCCC41)N(CC)C(C)=C(C(=O)OC)C(c1ccccc1)N3C2=O (some centres not stated),AC50,Cytochrome P450 3A4,5.01 µM (inconclusive)
CCN1C[C@@]2(C)CC[C@@H](OC)[C@@]34C2C(O)[C@@]2(OCO[C@]25CC(OC)C2C[C@@]3(O)C5C2O)C14 (some centres not stated),AC50,Cytochrome P450 3A4,39.8 µM (inconclusive)
CCn1c(SCC(=O)Nc2ccc(C(C)=O)cc2)nc2nc3c(cc2c1=O)CCCC3,IC50,[18],> 64 µM (inactive)
same,EC50,Melanocortin receptor 4,> 89.2 µM (inactive)
